In ChEMBL document CHEMBL5154887, “Novel CRBN-Recruiting Proteolysis-Targeting Chimeras as Degraders of Stimulator of Interferon Genes with In Vivo Anti-Inflammatory Efficacy” (J Med Chem, 2022):

Columns and labels:
[1] = target: T1, Protein cereblon/Stimulator of interferon genes protein (Homo sapiens, UniProt Q96SW2+Q86WV6); test: Protac activity at CRBN/STING in human THP-1 cells assessed as increase in STING degradation at 10 uM incubated for 48 hrs by Western blot analysis relative to control; type: cell-based
Target sequence in this assay (Q86WV6 whole entry, looked up): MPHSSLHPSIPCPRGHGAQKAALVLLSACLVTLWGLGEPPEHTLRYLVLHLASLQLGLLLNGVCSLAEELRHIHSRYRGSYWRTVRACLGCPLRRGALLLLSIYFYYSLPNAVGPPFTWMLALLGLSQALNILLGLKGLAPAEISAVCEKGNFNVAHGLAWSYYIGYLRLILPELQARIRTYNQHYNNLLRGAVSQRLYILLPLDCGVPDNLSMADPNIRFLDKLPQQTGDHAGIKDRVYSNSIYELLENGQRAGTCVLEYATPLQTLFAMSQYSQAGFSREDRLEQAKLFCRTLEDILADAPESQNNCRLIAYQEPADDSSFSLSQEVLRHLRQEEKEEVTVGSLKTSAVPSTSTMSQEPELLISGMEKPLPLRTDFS
Target sequence in this assay (Q96SW2 whole entry, looked up): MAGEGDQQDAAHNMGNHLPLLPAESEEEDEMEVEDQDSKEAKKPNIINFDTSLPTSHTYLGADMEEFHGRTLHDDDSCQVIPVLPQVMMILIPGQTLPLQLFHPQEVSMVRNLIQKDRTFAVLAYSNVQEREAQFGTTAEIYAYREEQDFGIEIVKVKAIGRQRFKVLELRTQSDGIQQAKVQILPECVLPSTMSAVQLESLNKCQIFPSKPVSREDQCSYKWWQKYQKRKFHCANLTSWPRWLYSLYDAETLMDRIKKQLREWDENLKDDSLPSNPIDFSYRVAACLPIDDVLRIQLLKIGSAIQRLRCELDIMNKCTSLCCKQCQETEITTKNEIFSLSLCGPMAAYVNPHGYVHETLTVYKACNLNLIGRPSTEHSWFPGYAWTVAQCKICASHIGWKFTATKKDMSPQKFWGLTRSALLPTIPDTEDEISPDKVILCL

[2] = Cytotoxicity against HEK293-A cells assessed as reduction in cell viability at <10 uM by MTT assay; type: toxicity, cell-based; conditions: human
[3] = Cytotoxicity against mouse C17.2 cells assessed as reduction in cell viability at <10 uM by MTT assay; type: toxicity, cell-based; conditions: c17.2, 10 µM
L02 = test: Cytotoxicity against human L02 cells assessed as reduction in cell viability at <10 uM by MTT assay; type: toxicity, cell-based; conditions: l02, 10 µM
[4] = target: T1, Protein cereblon/Stimulator of interferon genes protein; test: Protac activity at CRBN/STING in human THP-1 cells assessed as increase in STING degradation incubated for 48 hrs by Western blot analysis; type: cell-based
Target sequence in this assay (Q96SW2 whole entry): as the sequence (Q96SW2 whole entry, looked up) above
Target sequence in this assay (Q86WV6 whole entry): as the sequence (Q86WV6 whole entry, looked up) above

Structure (SMILES) | Activity [1] | Activity [2] | Activity [3] | Activity (L02) | DC50 [4]
O=C(/C=C/C(=O)Nc1ccc(NC(=O)c2ccc([N+](=O)[O-])o2)cc1)NCCCCCNc1cccc2c1C(=O)N(C1CCC(=O)NC1=O)C2=O (stereo not given) | 62% | Non-Toxic | Non-Toxic | Non-Toxic | 9.2 µM
O=C(/C=C/C(=O)Nc1ccc(NC(=O)c2ccc([N+](=O)[O-])o2)cc1)NCCCCNc1cccc2c1C(=O)N(C1CCC(=O)NC1=O)C2=O (stereo not given) | 22% | Non-Toxic | Non-Toxic | Non-Toxic | > 10 µM
